Measurements: ChEMBL document CHEMBL4342525, “Synthesis and Biochemical Evaluation of Noncyclic Nucleotide Exchange Proteins Directly Activated by cAMP 1 (EPAC1) Regulators” (J Med Chem, 2020)
The source made the active and inactive calls. The rule behind the calls is not given here.

Legend:
[1] = target: T1, Rap guanine nucleotide exchange factor 3 (Homo sapiens) (UniProt O95398); assay: Binding affinity to GST-tagged recombinant EPAC1 CNBD (169 to 318 residues) (unknown origin) expressed in Escherichia coli BL21 Star (DE3) assessed as relative fluorescence intensity incubated for 4 hrs by 8-NBD-cAMP competition binding assay relative to control; parameters: concentration or dose not given beside the values
T1 sequence (whole entry): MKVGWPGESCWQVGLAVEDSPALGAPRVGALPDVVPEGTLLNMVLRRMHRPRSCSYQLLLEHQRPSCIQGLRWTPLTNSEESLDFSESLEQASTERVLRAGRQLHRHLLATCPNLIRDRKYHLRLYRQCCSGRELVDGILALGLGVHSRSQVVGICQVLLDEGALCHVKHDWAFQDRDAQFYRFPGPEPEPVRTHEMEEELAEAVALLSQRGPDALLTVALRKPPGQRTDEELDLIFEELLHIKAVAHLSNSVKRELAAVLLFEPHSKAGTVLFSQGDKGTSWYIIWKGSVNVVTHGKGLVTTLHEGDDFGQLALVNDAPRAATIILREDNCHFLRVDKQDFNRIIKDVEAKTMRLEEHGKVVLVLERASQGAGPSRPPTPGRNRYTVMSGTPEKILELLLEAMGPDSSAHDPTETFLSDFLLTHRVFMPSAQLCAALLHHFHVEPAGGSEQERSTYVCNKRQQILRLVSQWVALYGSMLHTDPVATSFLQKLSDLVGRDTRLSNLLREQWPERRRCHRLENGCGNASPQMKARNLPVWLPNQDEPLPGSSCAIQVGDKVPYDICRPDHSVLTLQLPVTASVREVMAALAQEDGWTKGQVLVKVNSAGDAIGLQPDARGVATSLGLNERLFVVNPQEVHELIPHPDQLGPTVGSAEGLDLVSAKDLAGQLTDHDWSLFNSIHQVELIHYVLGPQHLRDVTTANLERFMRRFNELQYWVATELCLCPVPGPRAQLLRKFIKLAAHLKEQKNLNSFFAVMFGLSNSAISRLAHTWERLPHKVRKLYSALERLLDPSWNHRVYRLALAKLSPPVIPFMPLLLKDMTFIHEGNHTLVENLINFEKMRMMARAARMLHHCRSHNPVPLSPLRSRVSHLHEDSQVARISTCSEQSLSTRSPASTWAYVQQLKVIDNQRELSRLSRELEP

[2] = target: T1, Rap guanine nucleotide exchange factor 3 (Homo sapiens); assay: Activation of EPAC1 (unknown origin) expressed in U2OS cells at 100 uM incubated for 10 mins using GST-RalGDS-RBD by Western blot analysis based active GTP-bound Rap1 pull down assay; type: cell-based
[3] = target: T2, Rap guanine nucleotide exchange factor 3 (Homo sapiens, UniProt O95398); assay: Activation of recombinant EPAC1 (149 to 881 residues) (unknown origin) assessed as stimulation of dissociation of fluorescent MANT-GDP from recombinant Rap1b in presence of excess nonfluorescent nucleotides by fluorescence based in-vitro GEF assay
T2 sequence (O95398 whole entry): T1 sequence (whole entry)

[4] = Binding affinity to GST-tagged recombinant EPAC1 delta-DEP mutant (149 to 881 residues) (unknown origin) expressed in Escherichia coli BL21 Star (DE3) incubated for 4 hrs by 8-NBD-cAMP competition binding assay; parameters: species or system Homo sapiens
[5] = target: T1, Rap guanine nucleotide exchange factor 3 (Homo sapiens); assay: Activation of recombinant EPAC1 (149 to 881 residues) (unknown origin) assessed as stimulation of dissociation of fluorescent MANT-GDP from recombinant Rap1b at 500 uM in presence of excess nonfluorescent nucleotides by fluorescence based in-vitro GEF assay relative to cAMP
[6] = Activation of PKA in human U2OS cells stably transfected with EPAC1 assessed as increase in VASP phosphorylation at 100 uM by Western blot analysis; type: cell-based
[7] = target: T1, Rap guanine nucleotide exchange factor 3 (Homo sapiens); assay: Activation of EPAC1 (unknown origin) expressed in U2OS cells at 100 uM pre-incubated for 10 mins before 8-pCPT-2'-O-Me-cAMP stimulation for 10 mins using GST-RalGDS-RBD by Western blot analysis based active GTP-bound Rap1 pull down assay; type: cell-based
[8] = target: T1, Rap guanine nucleotide exchange factor 3 (Homo sapiens); assay: Activation of recombinant EPAC1 (149 to 881 residues) (unknown origin) assessed as stimulation of dissociation of fluorescent MANT-GDP from recombinant Rap1b at 10 uM in presence of excess nonfluorescent nucleotides by fluorescence based in-vitro GEF assay relative to cAMP
[9] = target: T1, Rap guanine nucleotide exchange factor 3 (Homo sapiens); assay: Activity at recombinant EPAC1 (149 to 881 residues) (unknown origin) assessed as reduction in cAMP-induced stimulation of dissociation of fluorescent MANT-GDP from recombinant Rap1b at 500 uM in presence of excess nonfluorescent nucleotides by fluorescence based in-vitro GEF assay
[10] = target: T1, Rap guanine nucleotide exchange factor 3 (Homo sapiens); assay: Activation of EPAC1 in HUVEC assessed as reduction in IL-6-promoted signaling by measuring pERK protein levels at 100 uM pre-incubated for 30 mins before IL6 and sIL6Ralpha stimulation for 5 hrs by Western blotting analysis; type: cell-based
[11] = target: T1, Rap guanine nucleotide exchange factor 3 (Homo sapiens); assay: Activation of EPAC1 in HUVEC assessed as reduction in IL-6-promoted signaling by measuring VCAM1 protein expression at 100 uM pre-incubated for 30 mins before IL6 and sIL6Ralpha stimulation for 5 hrs by Western blotting analysis; type: cell-based
[12] = target: T1, Rap guanine nucleotide exchange factor 3 (Homo sapiens); assay: Activation of EPAC1 in HUVEC assessed as reduction in IL-6-promoted signaling by measuring SELE protein expression at 100 uM pre-incubated for 30 mins before IL6 and sIL6Ralpha stimulation for 5 hrs by Western blotting analysis; type: cell-based
[13] = target: T1, Rap guanine nucleotide exchange factor 3 (Homo sapiens); assay: Activation of EPAC1 in HUVEC assessed as reduction in IL-6-promoted signaling by measuring ICAM1 protein expression at 100 uM pre-incubated for 30 mins before IL6 and sIL6Ralpha stimulation for 5 hrs by Western blotting analysis; type: cell-based
[14] = target: T1, Rap guanine nucleotide exchange factor 3 (Homo sapiens); assay: Activation of EPAC1 in HUVEC assessed as reduction in IL-6-promoted signaling by measuring pAKT protein levels at 100 uM pre-incubated for 30 mins before IL6 and sIL6Ralpha stimulation for 5 hrs by Western blotting analysis; type: cell-based
[15] = target: T1, Rap guanine nucleotide exchange factor 3 (Homo sapiens); assay: Activation of EPAC1 in HUVEC assessed as reduction in IL-6-promoted signaling by measuring pSTAT3 protein levels at 100 uM pre-incubated for 30 mins before IL6 and sIL6Ralpha stimulation for 5 hrs by Western blotting analysis; type: cell-based
[16] = target: T2, Rap guanine nucleotide exchange factor 3; assay: Binding affinity to GST-tagged recombinant EPAC1 CNBD (169 to 318 residues) (unknown origin) expressed in Escherichia coli BL21 Star (DE3) incubated for 4 hrs by 8-NBD-cAMP competition binding assay

Row | Compound | Activity [1] | other results
1 | Cc1ccc(S(=O)(=O)NC(=O)COc2ccc3[nH]ccc3c2)c(C)c1 | 91% | 
2 | Cc1ccc(S(=O)(=O)NC(=O)COc2ccc3cc(F)ccc3c2)c(C)c1 | 55% | 
3 | Cc1cc(C)c(S(=O)(=O)NC(=O)CNc2ccc3ccccc3c2)c(C)c1 | 97% | 
4 | Cc1cc(C)c(S(=O)(=O)NC(=O)CSc2nc3ccccc3c(=O)[nH]2)c(C)c1 | 95% | 
5 | Cc1ccc(S(=O)(=O)NC(=O)COc2ccc3[nH]ncc3c2)c(C)c1 | 94% | 
6 | Cc1cc(-c2cncc(F)c2)cc(S(=O)(=O)NC(=O)COc2ccc3ccccc3c2)c1 | 36% | 
7 | Cc1ccc(S(=O)(=O)NC(=O)COc2ccc3ccc(Cl)cc3c2)c(C)c1 | 66% | 
8 | Cc1cc(C)c(S(=O)(=O)NC(=O)CN2CCc3ccccc3C2)c(C)c1 | 102% | 
9 | COc1ccc2ccc(OCC(=O)NS(=O)(=O)c3c(C)cc(C)cc3C)cc2c1 | 49% | 
10 | Cc1ccc(S(=O)(=O)NC(=O)COc2cccc3ccccc23)c(C)c1 | 71% | 
11 | Cc1cc(C)c(S(=O)(=O)NC(=O)CN2CCn3c(nnc3C(F)(F)F)C2)c(C)c1 | 104% | 
12 | COc1ccc2ccc(OCC(=O)NS(=O)(=O)c3ccc(OC)c(OC)c3)cc2c1 | 23% | 
13 | COc1cc2c(cc1OC)CN(CC(=O)NS(=O)(=O)c1c(C)cc(C)cc1C)CC2 | 102% | 
14 | COc1ccc(OC)c(S(=O)(=O)NC(=O)COc2ccc3ccc(OC)cc3c2)c1 | 49% | 
15 | Cc1cc(C)c(S(=O)(=O)NC(=O)CSc2ccc3ccccc3c2)c(C)c1 | 92% | 
16 | COc1ccc(S(=O)(=O)NC(=O)COc2ccc3ccccc3c2)c(OC)c1 | 23% | Activity [2]: Active; EC50 [3]: 5 µM; IC50 [4]: 4.9 µM; Activity [5]: 2%; Activity [6]: Not Active; Activity [7]: Active; Activity [8]: Active; Activity [9]: Active
17 | Cc1ccc(S(=O)(=O)NCCOc2ccc3ccccc3c2)c(C)c1 | 81% | 
18 | COc1ccc2ccc(OCC(=O)NS(=O)(=O)c3ccc([N+](=O)[O-])cc3OC)cc2c1 | 24% | 
19 | O=C(COc1ccc2ccccc2c1)NS(=O)(=O)c1cccc(-c2ccoc2)c1 | 53% | 

Row | Compound | Activity [1] | other results
20 | Cc1cc(C)c(S(=O)(=O)NC(=O)C(F)Oc2ccc3ccccc3c2)c(C)c1 (stereo not given) | 82% | 
21 | Cc1ccc(S(=O)(=O)NC(=O)COc2ccc3cc(Cl)ccc3c2)c(C)c1 | 50% | 
22 | Cc1cc(Nc2ccc(C(F)(F)F)cn2)cc(S(=O)(=O)NC(=O)COc2ccc3ccccc3c2)c1 | 20% | 
23 | Cc1cc(-c2ccco2)cc(S(=O)(=O)NC(=O)COc2ccc3ccccc3c2)c1 | 40% | 
24 | O=C(COc1ccc2ccccc2c1)NS(=O)(=O)c1cccc(-c2ccccc2)c1 | 35% | 
25 | Cc1cc(C)c(S(=O)(=O)NC(=O)COc2ccc3c(c2)CCCC3)c(C)c1 | 77% | 
26 | Cc1cc(C)c(S(=O)(=O)NC(=O)CNc2cccc(Cl)c2)c(C)c1 | 88% | 
27 | Cc1cc(C)c(S(=O)(=O)NC(=O)COc2cccc3ccccc23)c(C)c1 | 94% | 
28 | Cc1cc(C)c(S(=O)(=O)NC(=O)CN2CCN(c3ccccn3)CC2)c(C)c1 | 119% | 
29 | COc1ccc2ccc(OCC(=O)NS(=O)(=O)c3cc(C)cc(Br)c3)cc2c1 | 29% | 
30 | CC(=O)c1c(OCC(=O)NS(=O)(=O)c2c(C)cc(C)cc2C)ccc2ccccc12 | 104% | 
31 | Cc1cc(C)c(S(=O)(=O)NC(=O)COc2ccc3cccnc3c2)c(C)c1 | 92% | 
32 | Cc1ccc(S(=O)(=O)NC(=O)C(C)(C)Oc2ccc3ccccc3c2)c(C)c1 | 76% | 
33 | Cc1cc(C)c(S(=O)(=O)NC(=O)COc2ccc3c(c2)NC(=O)CC3)c(C)c1 | 77% | 
34 | Cc1cc(C)c(S(=O)(=O)NCCOc2ccc3ccccc3c2)c(C)c1 | 105% | 
35 | COc1ccc2ccc(OCC(=O)NS(=O)(=O)c3cc(Cl)cc(Cl)c3)cc2c1 | 54% | 
36 | Cc1cc(-c2ccnn2C)cc(S(=O)(=O)NC(=O)COc2ccc3ccccc3c2)c1 | 34% | 
37 | Cc1cc(C)c(S(=O)(=O)N2CCC(Oc3ccc4ccccc4c3)CC2)c(C)c1 | 105% | 

Second part, led by results:

Row | Activity [1] | Compound | other results
38 | 69% | O=C(COc1ccc2ccccc2c1)NS(=O)(=O)c1ccccc1F | 
39 | 81% | Cc1cc(C)c(S(=O)(=O)NC(=O)COc2ccc3ccccc3c2)c(C)c1 | 
40 | inactive | Nc1ccc(S(=O)(=O)NC(=O)COc2ccc3ccccc3c2)cc1F | Activity [10]: inactive; Activity [11]: inactive; Activity [2]: Active; Activity [12]: inactive; Activity [6]: Not Active; Activity [8]: Active; Activity [13]: inactive; Activity [14]: inactive; Activity [15]: inactive
41 | 58% | Cc1cc(Br)cc(S(=O)(=O)NC(=O)COc2ccc3ccccc3c2)c1 | 
42 | 82% | O=C(COc1ccc2ccccc2c1)NS(=O)(=O)c1cccc(F)c1 | 
43 | 67% | O=C(COc1ccc2ccccc2c1)NS(=O)(=O)c1cccc([N+](=O)[O-])c1 | 
44 | 72% | COc1ccc(OC)c(S(=O)(=O)NC(=O)COc2ccc3ccccc3c2)c1 | 
45 | 81% | O=C(COc1ccc2ccccc2c1)NS(=O)(=O)c1ccc(F)cc1 | 
46 | 38% | Cc1cc(C)cc(S(=O)(=O)NC(=O)COc2ccc3ccccc3c2)c1 | 
47 | 50% | COc1ccc(S(=O)(=O)NC(=O)COc2ccc3ccccc3c2)cc1OC | 
48 | 81% | O=C(COc1ccc2ccccc2c1)NS(=O)(=O)c1ccc([N+](=O)[O-])c(F)c1 | Activity [10]: inactive; Activity [11]: inactive; Activity [2]: Active; Activity [12]: inactive; Activity [6]: Not Active; IC50 [16]: 32.5 µM; Activity [8]: Active; Activity [13]: inactive; Activity [14]: inactive; Activity [15]: inactive
49 | 49% | O=C(COc1ccc2ccccc2c1)NS(=O)(=O)c1ccccc1 | 
50 | 44% | Cc1ccc(S(=O)(=O)NC(=O)COc2ccc3ccccc3c2)cc1 | 
51 | 81% | O=C(COc1ccc2ccccc2c1)NS(=O)(=O)C1CCCCC1 | 
52 | 71% | COC(=O)c1cccc(S(=O)(=O)NC(=O)COc2ccc3ccccc3c2)c1 | 
53 | 33% | COc1cccc(S(=O)(=O)NC(=O)COc2ccc3ccccc3c2)c1 | 
